Measured values reported in patent publication EP0465913B1, “Diaminotrifluoromethylpyrimidine derivatives, process for their production and phospholipase A2 inhibitor containing them” (ISHIHARA SANGYO KAISHA, LTD., priority 1990, dated 1992).
“And” between values parts separate entries of the source, which are not always exact repeats. Equal values may be shown once. Read-outs that look alike come from different tables or passages of the source.

Assays:
[1] = test system: experimental acute pancreatitis model; assay: Effects against acute pancreatitis (Test Example 7, closed duodenal loop method, gross pathological examination); format: in vivo, Crj-CD male rats; parameters: key to Pancreatic edema Distribution: -: No significant lesions; ± ∼ +++: Focal-diffuse; ± ∼ +++: Focal-diffuse; ± ∼ +++: Focal-diffuse; ± ∼ +++: Focal-diffuse; key to Pancreatic hemorrhage Petechia Grade / Pancreatic edema Grade: -: No significant lesions; ±: Minimal; +: Light; ++: Moderate; +++: Marked; settings: 50 mg per kg continuous intravenous injection, examination 6 hours after ventrotomy, individual rats
Protocol: (§1) Using Crj-CD male rats (for Compound No. 19, rats having a body weight of from 371 to 484 g were used, and for Compound No. 10, rats having a body weight of from 444 to 574 g were used), each test group consisted of 3 rats. An experimental acute pancreatitis model was prepared by a closed duodenal loop method under anesthesia with halothane (manufactured by Hoechst Japan) and nitrous oxide (manufactured by Sumitomo Seika K.K.) applied by means of a general inhalation anesthesia machine (Model EM-2 and halothane evaporator F-Model). Then, Compound No. 19 or Compound No. 10 was continuously intravenously injected into the tail vein in an amount of 50 mg per kg or 40 mg per kg, respectively, at a rate of 0.05 ml per minute by means of a pump (Technicon AA II Proportioning Pump III, manufactured by Technicon Instruments Corporation). No injection was made to a control group. Gross pathological examination was conducted upon expiration of 6 hours after the ventrotomy in the case of the test group to which Compound No. 19 was administered, or upon expiration of 3 hours after the ventrotomy in the case of the test group to which Compound No. 10 was administered. As a result, as shown in the following Table 12, the groups to which the compounds of the present invention were administered, show distinct usefulness for treating acute pancreatitis.

[2] = target: T1, Porcine pancreatic phospholipase A2 (Sus scrofa, UniProt P00592); assay: Phospholipase A2 inhibitory activity, method A (egg yolk lecithin substrate); format: biochemical; settings: 1,000 ppm, 37°C for 30 minutes, read-out: % inhibition of PLA2 (1,000 ppm)
T1 construct: purchased Boehringer Mannheim·Yamanouchi K.K. 161454·122416
T1 sequence (P00592 23-146): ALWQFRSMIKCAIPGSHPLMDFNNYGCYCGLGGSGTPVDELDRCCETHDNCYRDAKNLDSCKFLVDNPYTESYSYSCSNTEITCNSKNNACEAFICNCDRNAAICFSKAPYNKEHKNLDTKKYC
Method in brief: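 Egg yolk lecithin dispersed with glycerine, Triton X-100 and CaCl2 in 50 mM Tris-HCl pH7.5 was hydrolysed by enzyme (20 ng/ml solution) with compound, 37°C, 30 min. Released free fatty acid measured by ACS-ACOD method at 540 nm; apparent enzyme level read from a standard curve to give percent inhibition.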

[3] = Acute toxicity, intravenous injection (LD50); format: in vivo; settings: mouse, in vivo, iv, ddy male mice, sodium salt, mortality over one week
Protocol: Administration route: Intravenous injection
Using ddy male mice (body weight: 25 - 30 g), each test group consisted of 5 mice. A test compound was dissolved in the form of a sodium salt in a physiological saline or in a 5% glucose aqueous solution, and intravenously injected in an amount of 0.1 ml/10 g body weight. After the injection, the mortality rate was obtained over one week, and the median lethal dose LD50 (mg/kg) was determined.

[4] = test system: carrageenin edema; assay: Inhibitory activity on carrageenin edema; format: in vivo, Wistar male rats; settings: rat, paw swelling volume three hours after carrageenin; for Inhibition rate (%): dose 50 mg/kg orally
Method in brief: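 Male Wistar rats (about 100 g, 5 per group) dosed orally at 200, 100, 50 or 25 mg/kg as 2% Tween 80 suspension or aqueous salt solution, 1 h before subplantar injection of 0.1 ml 1% λ-carrageenin. Paw swelling measured at 3 h; % inhibition versus control group mean swelling.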

[5] = target: T1, Porcine pancreatic phospholipase A2; assay: Phospholipase A2 inhibitory activity, method B (L-α-dipalmitoylphosphatidylcholine substrate); format: biochemical; settings: 1,000 ppm, 37°C for 30 minutes, read-out: % inhibition of PLA2 (1,000 ppm)
Method in brief: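 Substrate: L-α-dipalmitoylphosphatidylcholine/sodium cholate mixed micelles in 250 mM NaCl, 100 mM Tris-HCl pH 8.0. Enzyme (10 µg/ml stock) incubated with compound in buffer containing CaCl2 and BSA, 30 min at 37 °C. Released free fatty acid measured by ACS-ACOD at 540 nm; % inhibition derived from apparent enzyme concentration read off a standard curve.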

[6] = test system: experimental acute pancreatitis model; assay: Effects against acute pancreatitis (Test Example 7, closed duodenal loop method, gross pathological examination); format: in vivo, Crj-CD male rats; parameters: key: -: No significant lesions; ±: Minimal; +: Light; ++: Moderate; +++: Marked; settings: 50 mg per kg continuous intravenous injection, examination 6 hours after ventrotomy, individual rats
Protocol: as §1

[7] = test system: experimental acute pancreatitis model; assay: Effects against acute pancreatitis (Test Example 8, closed duodenal loop method, lesion scores); format: in vivo, Crj-CD male rats; settings: sodium salt, 6 hours after ventrotomy; for inhibition in vivo at 10 mg/kg: Rattus norvegicus, 10 mg/kg single intravenous injection
Method in brief: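 Closed duodenal loop pancreatitis in male Crj-CD rats (n=3) under halothane/nitrous oxide; sodium-salt compounds given i.v. into tail vein by continuous infusion or bolus, controls untreated. At 6 h, four pancreatic lesions scored 0-3; inhibition % of total and hemorrhagic scores calculated versus control.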

[8] = test system: increased vascular permeability induced by acetic acid; assay: Inhibitory activity on increased vascular permeability induced by acetic acid (Rat Whittle method, method D); format: in vivo, SD (Crj: CD) male rats; settings: amount of leaked dye
Protocol: Using SD (Crj: CD) male rats, each test group consisted of from 3 to 5 rats. A test compound was mixed with Tween 80 [polyoxyethylenesorbitan monooleate (manufactured by Nacalai Tesque K.K.)], and distilled water was added thereto to obtain a 2% Tween 80 suspension, or it was dissolved in the form of a salt in water to obtain an aqueous solution. A test compound was orally administered, and one hour later, 0.7% acetic acid was intraperitonially injected to each rat in an amount of 0.05 ml/10 g, and at the same time, 2% brilliant blue was intravenously injected into the tail vein in an amount of 0.05 ml/20 g. Thirty minutes after the injection of brilliant blue, the cervical vertebrae were dislocated under anesthesia by chloroform, and the abdorminal cavity was washed with 10 ml of a physiological saline. The washing solution was subjected to centrifugal separation at 3,000 rpm for 10 minutes, and the amount of the dye in the supernatant was measured at 600 nm absorbance by Microplate ELISA Reader (Model 2550EIA Reader, manufactured by Bio-Rad Laboratories). The inhibition rate of the amount of leaked dye in the group to which a test compound was administered relative to the control group was obtained from the following formula, and the results are shown in Table 9. Inhibition rate (%) = (l -(C)/(D)) x 100 [formula] • C: Amount of leaked dye in the group to which a test compound was administered. • D: Amount of leaked dye in the control group.

[9] = test system: increased vascular permeability induced by acetic acid; assay: Inhibitory activity on increased vascular permeability induced by acetic acid (Mouse Whittle method, method C); format: in vivo, ddy male mice; settings: dose 20 mg/kg orally, amount of leaked dye
Protocol: Using ddy male mice, each test group consisted of 4 or 5 mice. A test compound was mixed with Tween 80 [polyoxyethylenesorbitan monooleate (manufactured by Nacalai Tesque K.K.)], and distilled water was added thereto to obtain a 2% Tween 80 suspension, or it was dissolved in the form of a salt in water to obtain an aqueous solution. A test compound was orally administered, and upon expiration of one hour from the administration, 0.7% acetic acid was intraperitonially injected to each mouse in an amount of 0.1 ml/10 g, and at the same time, 2% brilliant blue was intravenously injected into the tail vein in an amount of 0.1 ml/20 g. Thirty minutes after the injection of brilliant blue, the cervical vertebrae were dislocated under anesthesia by chloroform, and the abdorminal cavity was washed with 5 ml of a physiological saline. The washing solution was subjected to centrifugal separation at 3,000 rpm for 10 minutes, and the amount of the dye in the supernatant was measured at 600 nm absorbance by Microplate ELISA Reader (Model 2550EIA Reader, manufactured by Bio-Rad Laboratories). The inhibition rate of the amount of leaked dye in the group in which a test compound was administered relative to the control group was obtained by the following formula. Inhibition rate (%) = (l -(C)/(D)) x 100 [formula] • C: Amount of leaked dye in the group to which a test compound was administered. • D: Amount of leaked dye in the control group.

[10] = read-out: Inhibition rate of hemorrhagic lesions (%)
[11] = read-out: Inhibition rate of pancreatitis lesions (%)

| Structure (SMILES) | inhibition at 1000 ppm [5] [%] | LD50 at 168 h [3] [mg/kg] | inhibition in vivo at 10 mg/kg [7, 10] [%] | inhibition in vivo at 10 mg/kg [7, 11] [%] | Inhibition rate (%) ([8]; dose 25 mg/kg orally) | Inhibition rate (%) [4] [%] | Inhibition rate (%) ([8]; dose 50 mg/kg orally) | further results |
| --- | --- | --- | --- | --- | --- | --- | --- | --- |
| CCS(=O)(=O)Nc1ncc(C(F)(F)F)cc1NC(=O)C(F)(F)C(F)(F)F [Compound No. 19, N-(2-ethylsulfonylamino-5-trifluoromethyl-3-pyridyl)pentafluoropropionamide] | 75 | 50 to 100 |  |  |  |  |  | Pancreatic edema Distribution [1]: + (2×) and ††; Pancreatic edema Grade [1]: + (2×) and ††; Pancreatic hemorrhage Petechia Grade [1]: -; inhibition at 1000 ppm [2]: > 90%; inhibition in vivo at 100 mg/kg ([4]; po, 3 h, dose 100 mg/kg orally, read-out: Inhibition rate (%)): 31%; Pancreatic hemorrhage Petechia Distribution [6]: - |
| CS(=O)(=O)Nc1ncc(C(F)(F)F)cc1NC(=O)c1cccc(C(F)(F)F)c1 [compound 80] | 73 | > 80 | 11 | 8 | 33 | 29 |  |  |
| CCS(=O)(=O)Nc1ncc(C(F)(F)F)cc1NC(=O)c1ccco1 [compound 101] |  |  |  |  |  | 24 | 41 | Inhibition rate (%) [9]: 46% |
| CS(=O)(=O)Nc1ncc(C(F)(F)F)cc1NC(=O)c1cccs1 [compound 120] |  | 83 |  |  |  | 27 | 35 | Inhibition rate (%) [9]: 43%; Inhibition rate of hemorrhagic lesions (%) ([7]; 24 mg/kg continuous intravenous injection): 100% |

Further lines, with some results ahead:

| inhibition at 1000 ppm [5] [%] | Structure (SMILES) | LD50 at 168 h [3] [mg/kg] | inhibition in vivo at 10 mg/kg [7, 10] [%] | inhibition in vivo at 10 mg/kg [7, 11] [%] | Inhibition rate (%) ([8]; dose 25 mg/kg orally) | Inhibition rate (%) [4] [%] | Inhibition rate (%) ([8]; dose 50 mg/kg orally) | further results |
| --- | --- | --- | --- | --- | --- | --- | --- | --- |
| 73 | CS(=O)(=O)Nc1ncc(C(F)(F)F)cc1NC(=O)C=Cc1cccs1 [compound 72] |  | 62 | 32 | 66 |  |  | inhibition in vivo at 25 mg/kg ([4]; po, 3 h, dose 25 mg/kg orally, read-out: Inhibition rate (%)): 21% |
| 38 | CS(=O)(=O)Nc1ncc(C(F)(F)F)cc1NC(=O)c1ccncc1 [compound 82] |  |  |  | 38 | 19 |  |  |
| 65 | CCS(=O)(=O)Nc1ncc(C(F)(F)F)cc1NC(=O)c1cccc(F)c1 [compound 98] |  |  |  |  | 45 | 32 |  |
| 35 | CN(C)S(=O)(=O)Nc1ncc(C(F)(F)F)cc1NC(=O)c1cccc(F)c1 [compound 113] |  | 41 | 36 |  | 26 | 67 |  |
